ChEMBL document CHEMBL5523737, “Novel Jatrophane Diterpenoids from Euphorbia esula Promotes Lipid Clearance by Transcriptional Regulation of PCSK9” (J Med Chem, 2024)
The source made the active and inactive calls. The rule behind the calls is not given here.

Tests used:
[1] = target: Proprotein convertase subtilisin/kexin type 9 (Homo sapiens) (UniProt Q8NBP7); experiment: Inhibition of PCSK9 transcription in human HepG2 cells at 5 uM by AlphaLISA method; type: cell-based
[2] = target: Proprotein convertase subtilisin/kexin type 9 (Homo sapiens) (UniProt Q8NBP7); experiment: Inhibition of PCSK9 transcription in human HepG2 cells by AlphaLISA method; type: cell-based
[3] = Cytotoxicity against human HepG2 cells assessed as cell viability at 20 uM after 24 hrs by CCK8 assay; type: toxicity, cell-based; conditions: read-out: Activity
HepG2 = experiment: Induction of LDL uptake in human HepG2 cells incubated for 3 hrs under dark condition by DiI-LDL DMEM staining based fluorescence microplate reader assay; type: functional, cell-based

| Structure (SMILES) | inhibition [1] [%] | inhibition [2] | viability at 24 h, 20 µM [3] [%] | Activity (HepG2) |
| --- | --- | --- | --- | --- |
| C=C1[C@@H](OC(C)=O)[C@H]2[C@@H](OC(C)=O)[C@](C)(OC(C)=O)C[C@]2(OC(C)=O)C(=O)[C@H](C)[C@]2(C)O[C@H]2C(C)(C)[C@H](OC(C)=O)[C@@H](OC(=O)C(C)C)[C@H]1OC(=O)C(C)C | 0.1 |  |  |  |
| C=C1[C@@H](OC(C)=O)[C@H]2[C@@H](OC(C)=O)[C@@H](C)C[C@]2(OC(C)=O)C(=O)[C@H](C)/C=C/C(C)(C)[C@H](OC(=O)c2ccccc2)[C@@H](OC(C)=O)[C@H]1OC(C)=O | 3.1 |  |  |  |
| C=C1[C@@H](OC(C)=O)[C@H]2[C@@H](OC(C)=O)[C@](C)(OC(C)=O)C[C@]2(OC(C)=O)C(=O)[C@H](C)/C=C/C(C)(C)C(=O)[C@@H](OC(=O)C(C)C)[C@H]1OC(=O)CC | 28 | Dose-Dependent Effect | > 95 | Active |
| C=C1[C@@H](OC(C)=O)[C@H]2[C@@H](OC(C)=O)[C@@H](C)C[C@]2(OC(C)=O)C(=O)[C@H](C)/C=C/C(C)(C)[C@H](O)C[C@H]1OC(=O)C(C)C | 5.7 |  |  |  |
| C=C1[C@@H](OC(C)=O)[C@H]2[C@@H](OC(C)=O)[C@](C)(OC(C)=O)C[C@]2(OC(C)=O)C(=O)[C@H](C)[C@]2(C)O[C@H]2C(C)(C)[C@H](OC(C)=O)[C@@H](OC(=O)c2ccccc2)[C@H]1OC(=O)C(C)C | 0.7 |  |  |  |
| C=C1[C@@H](OC(C)=O)[C@H]2[C@@H](OC(C)=O)[C@@H](C)C[C@]2(OC(C)=O)C(=O)[C@H](C)/C=C/C(C)(C)C(=O)C[C@H]1OC(=O)C(C)C | 35.7 | Dose-Dependent Effect | > 95 | Active |
| C=C1[C@@H](OC(C)=O)[C@H]2[C@@H](OC(C)=O)[C@](C)(OC(C)=O)C[C@]2(OC(C)=O)C(=O)[C@H](C)/C=C/C(C)(C)C(=O)[C@@H](OC(C)=O)[C@H]1OC(=O)C(C)C | 22.3 | Dose-Dependent Effect | > 95 | Active |
